Measured values published in patent US5733913A, “6-Aryl pyrido[2,3-d] pyrimidines and naphthyridines for inhibiting protein tyrosine kinase mediated cellular proliferation” (priority 1995, dated 1998).
Read-outs that look alike come from different tables or passages of the source.

Legend:
[1] = test system: Rat aorta smooth muscle cells (RASMC); assay: [3H]-Thymidine incorporation assay in RASMC; format: cell-based; conditions: read-out: Inhibition of Growth Factor Stimulated Uptake of [3H]-thymidine (IC50)
Description: Cell Culture Rat aorta smooth muscle cells (RASMC) were isolated from the thoracic aorta of rats and explanted according to the method of Ross, J. Cell. Biol., 30:172-186 (1971). Cells were grown in Dulbecco's modified Eagle's medium (DMEM, Gibco) containing 10% fetal calf serum (FBS, Hyclone, Logan, Utah), 1% glutamine (Gibco) and 1% penicillin/streptomycin (Gibco). Cells were identified as smooth muscle cells by their "hill and valley" growth pattern and by fluorescent staining with a monoclonal antibody specific for SMC […] (Sigma). RASMC were used between passages 5 and 20 for all experiments. Test compounds were prepared in dimethylsulfoxide (DMSO) in order to achieve consistency in the vehicle and to ensure compound solubility. Appropriate DMSO controls were simultaneously evaluated with the test compounds. […] RASMC were plated into a 24-well plate (30,000 cells/well) in DMEM with 10% FBS. After 4 days, cells reached confluence and were made quiescent by incubation in DMEM/F12 medium (Gibco) containing 0.2% FBS for another 2 days. […] […] The acid-insoluble fraction was lysed in 0.75 mL 0.25N NaOH and the radioactivity determined by liquid scintillation counting. IC50 values were determined graphically.

[2] = test system: V-src kinase; assay: V-src kinase assay; format: biochemical; conditions: at 50 μM
Procedure, shortened: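 Baculovirus-expressed v-src or c-src, immunopurified on antibody-coated latex beads, phosphorylated poly GluTyr with 5 μM ATP including [32P]-ATP in Tris pH 7.5/MgCl2. Reaction ran 10 min at room temperature, TCA/pyrophosphate quench, then filtered. Incorporated label counted by liquid scintillation and compared with solvent control.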

[3] = biological target: T1, human FGF-1 (flg) receptor tyrosine kinase (Homo sapiens, UniProt P11362); assay: FGF receptor tyrosine kinase assay; format: biochemical; conditions: read-out: Inhibition of Protein Tyrosine Kinases, FGF, IC50
T1 construct: a fragment of DNA that codes for the intracellular tyrosine kinase domain; made in house; host or cells: Sf9 insect cells (baculovirus), cell lysate
Procedure, shortened: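 Intracellular kinase domains expressed in baculovirus-infected SF9 cells; crude lysate used as enzyme. Inhibitor preincubated 10 min at 25 °C with lysate in pH 7.0 Hepes buffer with 10 mM MnCl2 and poly(Glu-Tyr) 4:1, then γ-32P-ATP (50 μM ATP) added for 10 min at 25 °C. TCA-precipitated 32P on filters counted, no-enzyme background subtracted.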

T1 sequence (P11362 478-767 limits assumed): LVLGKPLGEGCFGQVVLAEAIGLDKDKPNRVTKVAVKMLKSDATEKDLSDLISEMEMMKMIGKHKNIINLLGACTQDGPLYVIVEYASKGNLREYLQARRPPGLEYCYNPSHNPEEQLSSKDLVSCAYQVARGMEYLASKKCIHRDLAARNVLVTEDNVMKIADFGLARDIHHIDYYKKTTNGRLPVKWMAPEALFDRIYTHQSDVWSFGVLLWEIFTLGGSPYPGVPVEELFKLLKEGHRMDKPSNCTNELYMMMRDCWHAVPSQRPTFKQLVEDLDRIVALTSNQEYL

`Cc1ccccc1-c1cc2cnc(N)nc2nc1N` [Example 90, 6-o-Tolyl-pyrido[2,3-d]pyrimidine-2,7-diamine] was tested, and the IC50 ([1]; FGF stimulated) was 20 µM, the IC50 ([1]; PDGF stimulated) was over 10 µM and the “Inhibition of Protein Tyrosine Kinases, V-src, % Inhibition” value [2] was 16.8%. It also gave an IC50 [3] of 11.5 µM.
